Assay results: patent publication US20100120679A1, “Targeting NBS1-ATM Interaction To Sensitize Cancer Cells To Radiotherapy And Chemotherapy” (SOUTHERN RESEARCH INSTITUTE, priority 2006, published 2010)
Peptide text beside a SMILES is read from it. * marks the point of attachment. Biotin = O=C1N[C@H]2[C@H](CS[C@H]2CCCCC(=O)*)N1

Key:
[1] = tested on: prostate cancer cell line DU-145; test: Colony formation assay (radiosensitivity), DU-145; format: cell-based, human
Procedure: Colony number was determined with a dissecting microscope. […] The following formula was used: […]
Radiation survival curves were characterized based on Do to define the effect of NIP effect on radiosensitivity. D0 represents the mean lethal dose required for 37% survival and is a measure of the intrinsic radiosensitivity of the cell. D0 values for HeLa treated with wtNIP were 1.9 compared with 3.0 for cells treated with scNIP. To establish the statistical significance of wtNIP-induced radiosensitivity, Student's t test (paired two-sample for means) was incorporated. […] Significant differences (p<0.05) in clonogenic survival were observed between cells treated with wtNIP and those treated with DMEM, R9, or scNIP. The SER was 1.58. […] These observations have been confirmed in the prostate cancer cell line DU-145 with an SER of 1.46. Taken as a whole, they provide strong evidence for the radiosensitizing potential of the wtNIP peptide.

NBS1 binding to MRE11 = target: T1, NBS1 binding to MRE11 (Homo sapiens, UniProt P49959); test: Co-immunoprecipitation of MRE11 with NBS1 in peptide-treated cells; format: cell-based; settings: HeLa cells, four hours after peptide treatment
T1 construct: endogenous in cells; host or cells: HeLa
T1 sequence (P49959 1-708): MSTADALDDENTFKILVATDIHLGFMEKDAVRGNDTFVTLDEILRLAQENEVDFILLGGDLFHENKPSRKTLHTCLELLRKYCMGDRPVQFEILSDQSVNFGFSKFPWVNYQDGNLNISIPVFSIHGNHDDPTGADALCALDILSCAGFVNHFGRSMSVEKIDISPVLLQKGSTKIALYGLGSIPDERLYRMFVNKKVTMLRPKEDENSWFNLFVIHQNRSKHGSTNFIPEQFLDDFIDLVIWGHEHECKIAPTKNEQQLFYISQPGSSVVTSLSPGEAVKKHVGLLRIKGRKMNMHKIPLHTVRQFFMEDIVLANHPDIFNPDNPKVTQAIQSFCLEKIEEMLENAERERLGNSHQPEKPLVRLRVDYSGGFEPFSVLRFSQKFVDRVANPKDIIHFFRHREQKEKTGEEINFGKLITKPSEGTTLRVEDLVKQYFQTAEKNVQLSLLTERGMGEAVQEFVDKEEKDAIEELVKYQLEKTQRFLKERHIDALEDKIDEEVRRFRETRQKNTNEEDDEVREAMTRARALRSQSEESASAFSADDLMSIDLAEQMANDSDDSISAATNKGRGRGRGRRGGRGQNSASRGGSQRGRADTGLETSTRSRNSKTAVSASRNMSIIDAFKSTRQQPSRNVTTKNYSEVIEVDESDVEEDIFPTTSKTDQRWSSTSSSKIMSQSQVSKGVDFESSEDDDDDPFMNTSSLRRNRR
Procedure: (§1) HeLa cells treated with the NIP peptides were irradiated (0 or 6Gy). Immunoprecipitation was performed with a rabbit NBS1 antibody, and Western blotting was performed with monoclonal antibodies against ATM, NBS1 or MRE11.
(§2) Immunoprecipitation and Western blotting: For co-immunoprecipitation of ATM, NBS1 and MRE11, cells were lysed 1 hour in ice-cold lysis buffer, which consisted of 10 mM Tris-HCl (pH 7.5), 100 mM NaCl, 5 mM EDTA, 0.5% NP-40, 5 mM Na3VO4, 1 mM NaF, and 1 mM PMSF. After centrifugation, supernatants were incubated with indicated antibodies. After extensive washing with the lysis buffer, immunoprecipitates were analyzed by immunoblot using specific antibodies. For western blotting analysis, samples (cell lysates or immunoprecipitates) were separated on 4-12% SDS-poly-acrylamide gels, transferred to nitrocellulose membranes, and probed with various antibodies.
(§3) wtNIP Abrogated the NBS1-ATM Interaction: To investigate whether R9-conjugated NIP peptides could inhibit NBS1-ATM interactions, coimmunoprecipitation experiments were performed in cells treated with the NIP peptides. Four hours after peptide treatment, HeLa cells were harvested and subjected to immunoprecipitation using an anti-NBS1 antibody. The immunoprecipitates were then blotted with anti-ATM, NBS1, and MRE11 antibodies.

[2] = tested on: γ-H2AX foci in DU-145 cells; test: IR-induced γ-H2AX focus formation, DU-145; format: cell-based, human; settings: 10 μM peptide, 6Gy
Text: (§4) Error bars represent +/−1 SD, graphed are the mean of three independent experiments.
wtNIP Inhibits IR-Induced γ-H2AX and NBS1 pSer343 Focus Formation: One of the earliest responses to IR-induced DNA damage is the formation of γ-H2AX foci, which requires functional ATM (Burma et al., 2001; Furuta et al., 2003). […] Immunofluorescence microscopy was used to detect the presence of γ-H2AX foci in mock-irradiated or irradiated cells in the presence of R9, wtNIP or scNIP. […] Therefore, IR-induced γ-H2AX focus formation can be inhibited by wt-NIP.

HeLa cells = test: Length of time the peptides remain in cells (degradation, immunofluorescence)
Procedure: HeLa cells were treated with 10 μM R9, wtNIP, or scNIP for one hour and harvested at indicated time points before they were analyzed by immunofluorescence microscopy staining with an […].
Immunofluorescence microscopy: Exponentially growing cultures of cells were plated on sterile, […] coverslips, and incubated for 24 hours at 37° C. in 5% CO2 humidified air before they are treated with the NIP peptides at room temperature. Coverslips were washed with PBS and fixed with 4% paraformaldehyde-0.25% Triton X-100 for 15 minutes at room temperature, blocked for 30 minutes at room temperature, and incubated with FITC-conjugated streptavidin or anti-γH2AX and phospho-NBS1 antibodies (Rockland Immunochemicals, Gilbertsville, Pa.) for 1 hour at room temperature. Coverslips were then mounted with Vectashield Elite (Vector Labs, Burlingame, Calif.) and observed with a Leica fluorescence microscope. Images were captured at 40× magnification using a Q Imaging Retiga Exi digital camera and analyzed with Image Pro-Plus 5.1 software.
Because the peptides would be used in radiation studies, the length of time the peptides remain in cells was determined to ensure that the peptides would be present throughout the DNA repair process after IR.

[3] = tested on: NBS1 phosphorylation on serine 343 in DU-145 cells; test: IR-induced NBS1 pSer343 focus formation, DU-145; format: cell-based, human; settings: DU-145, 10 μM peptide, 6Gy, 120 minutes
Text: as §4
(§5) To further support the idea that wtNIP can inhibit ATM-mediated DNA damage pathways, IR-induced NBS1 focus formation, an event considered to be an ATM-dependent process at the sites of DSBs (Lim et al., 2000) was investigated. NBS1 foci are a result of ATM-mediated NBS1 phosphorylation on serine 343. […] The average number of foci in mock-irradiated HeLa cells was 6, 8, and 6 for R9, wtNIP, and scNIP, respectively.

[4] = tested on: NBS1 phosphorylation on serine 343 in HeLa cells; test: IR-induced NBS1 pSer343 focus formation, HeLa; format: cell-based, human
Text: as §4, §5

NBS1-ATM interaction = target: T2, NBS1-ATM interaction (Homo sapiens, UniProt Q13315); test: Co-immunoprecipitation of ATM with NBS1 in peptide-treated cells; format: cell-based
T2 construct: endogenous in cells; host or cells: HeLa
Procedure: as §1, §2, §3

T2 sequence (Q13315 whole entry): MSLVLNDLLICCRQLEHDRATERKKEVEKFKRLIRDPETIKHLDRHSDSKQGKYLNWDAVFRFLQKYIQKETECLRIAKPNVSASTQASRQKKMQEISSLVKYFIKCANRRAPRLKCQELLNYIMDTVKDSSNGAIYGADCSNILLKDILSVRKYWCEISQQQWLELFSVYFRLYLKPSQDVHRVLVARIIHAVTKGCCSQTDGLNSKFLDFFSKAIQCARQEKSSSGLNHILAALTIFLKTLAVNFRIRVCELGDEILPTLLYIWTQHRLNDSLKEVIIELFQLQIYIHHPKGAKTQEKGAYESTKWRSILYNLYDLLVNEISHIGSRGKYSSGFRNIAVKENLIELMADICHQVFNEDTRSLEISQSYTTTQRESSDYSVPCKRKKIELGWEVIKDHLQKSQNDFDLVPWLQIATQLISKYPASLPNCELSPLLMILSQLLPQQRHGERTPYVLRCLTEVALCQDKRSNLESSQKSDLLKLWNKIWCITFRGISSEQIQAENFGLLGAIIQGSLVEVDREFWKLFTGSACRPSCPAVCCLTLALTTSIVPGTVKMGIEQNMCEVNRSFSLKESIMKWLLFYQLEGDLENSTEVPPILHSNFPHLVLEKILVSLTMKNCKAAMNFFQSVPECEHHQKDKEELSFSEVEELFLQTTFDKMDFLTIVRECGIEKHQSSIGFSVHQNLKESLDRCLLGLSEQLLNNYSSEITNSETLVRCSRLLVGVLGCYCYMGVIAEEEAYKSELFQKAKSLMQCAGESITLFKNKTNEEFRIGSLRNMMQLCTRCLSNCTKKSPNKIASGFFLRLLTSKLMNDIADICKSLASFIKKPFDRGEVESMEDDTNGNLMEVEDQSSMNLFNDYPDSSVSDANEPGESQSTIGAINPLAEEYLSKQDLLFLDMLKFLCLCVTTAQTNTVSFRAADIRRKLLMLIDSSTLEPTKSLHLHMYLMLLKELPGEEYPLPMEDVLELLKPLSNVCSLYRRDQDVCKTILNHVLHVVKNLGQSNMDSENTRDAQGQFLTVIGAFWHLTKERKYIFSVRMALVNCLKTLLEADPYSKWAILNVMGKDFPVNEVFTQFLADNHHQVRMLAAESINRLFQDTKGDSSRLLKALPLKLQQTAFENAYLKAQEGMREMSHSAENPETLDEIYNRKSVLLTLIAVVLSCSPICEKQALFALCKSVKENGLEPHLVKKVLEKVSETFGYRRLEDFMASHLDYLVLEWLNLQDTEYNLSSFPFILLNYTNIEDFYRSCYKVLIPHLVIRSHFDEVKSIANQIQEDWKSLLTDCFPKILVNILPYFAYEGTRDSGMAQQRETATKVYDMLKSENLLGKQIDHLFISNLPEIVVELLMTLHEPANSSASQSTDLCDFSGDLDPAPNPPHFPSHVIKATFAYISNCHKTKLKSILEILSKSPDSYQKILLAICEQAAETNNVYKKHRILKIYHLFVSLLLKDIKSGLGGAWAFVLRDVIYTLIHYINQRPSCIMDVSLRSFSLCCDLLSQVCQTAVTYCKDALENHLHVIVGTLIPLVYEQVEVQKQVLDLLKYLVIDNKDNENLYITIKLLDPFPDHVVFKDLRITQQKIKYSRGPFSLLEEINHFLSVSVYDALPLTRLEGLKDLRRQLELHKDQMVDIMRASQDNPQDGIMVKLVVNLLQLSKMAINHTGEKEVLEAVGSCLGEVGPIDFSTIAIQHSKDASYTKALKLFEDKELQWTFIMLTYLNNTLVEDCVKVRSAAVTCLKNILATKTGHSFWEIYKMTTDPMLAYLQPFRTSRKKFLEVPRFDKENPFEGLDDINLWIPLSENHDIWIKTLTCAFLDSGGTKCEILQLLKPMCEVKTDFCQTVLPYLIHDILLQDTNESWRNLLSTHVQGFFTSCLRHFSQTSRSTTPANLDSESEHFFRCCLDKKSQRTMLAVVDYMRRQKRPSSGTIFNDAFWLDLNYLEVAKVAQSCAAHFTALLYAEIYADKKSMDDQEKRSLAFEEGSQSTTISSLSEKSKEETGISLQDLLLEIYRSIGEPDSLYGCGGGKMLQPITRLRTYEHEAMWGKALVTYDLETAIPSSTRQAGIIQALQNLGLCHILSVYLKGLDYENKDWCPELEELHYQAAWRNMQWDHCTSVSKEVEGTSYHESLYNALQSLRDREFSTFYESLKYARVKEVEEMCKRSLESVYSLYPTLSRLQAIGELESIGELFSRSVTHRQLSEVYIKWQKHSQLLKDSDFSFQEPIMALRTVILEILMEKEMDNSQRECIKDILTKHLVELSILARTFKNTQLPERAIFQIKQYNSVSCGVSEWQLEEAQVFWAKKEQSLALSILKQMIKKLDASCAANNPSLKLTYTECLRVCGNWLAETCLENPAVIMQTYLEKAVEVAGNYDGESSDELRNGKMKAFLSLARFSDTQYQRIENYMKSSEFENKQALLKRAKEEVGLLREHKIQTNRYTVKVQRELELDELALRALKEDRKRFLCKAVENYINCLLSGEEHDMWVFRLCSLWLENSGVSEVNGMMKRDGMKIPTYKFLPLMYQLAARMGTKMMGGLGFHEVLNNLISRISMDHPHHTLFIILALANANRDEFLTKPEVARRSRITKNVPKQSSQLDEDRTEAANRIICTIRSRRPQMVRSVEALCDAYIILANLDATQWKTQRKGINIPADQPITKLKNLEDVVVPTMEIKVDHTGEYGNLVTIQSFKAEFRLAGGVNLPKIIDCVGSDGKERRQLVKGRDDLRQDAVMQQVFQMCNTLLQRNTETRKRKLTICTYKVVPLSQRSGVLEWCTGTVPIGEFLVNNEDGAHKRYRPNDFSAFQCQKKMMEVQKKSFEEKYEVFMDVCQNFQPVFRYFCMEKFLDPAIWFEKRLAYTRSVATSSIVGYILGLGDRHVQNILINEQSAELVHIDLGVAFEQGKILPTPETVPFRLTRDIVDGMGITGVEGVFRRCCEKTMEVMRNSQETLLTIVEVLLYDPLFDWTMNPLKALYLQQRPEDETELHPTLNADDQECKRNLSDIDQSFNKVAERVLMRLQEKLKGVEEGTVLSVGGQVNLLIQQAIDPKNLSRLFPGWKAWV

## CC(C)C[C@H](NC(=O)[C@H](CC(=O)O)NC(=O)[C@H](CC(=O)O)NC(=O)[C@H](C)NC(=O)[C@H](CC(C)C)NC(=O)[C@H](CO)NC(=O)[C@H](CCC(=O)O)NC(=O)[C@H](CCC(=O)O)NC(=O)[C@H](CCCCN)NC(=O)[C@H](CCCNC(=N)N)NC(=O)[C@H](CCCNC(=N)N)NC(=O)[C@H](CCCNC(=N)N)NC(=O)[C@H](CCCNC(=N)N)NC(=O)[C@H](CCCNC(=N)N)NC(=O)[C@H](CCCNC(=N)N)NC(=O)[C@H](CCCNC(=N)N)NC(=O)[C@H](CCCNC(=N)N)NC(=O)[C@H](CCCNC(=N)N)NC(=O)CCCC[C@@H]1SC[C@@H]2NC(=O)N[C@@H]21)C(=O)O [wtNIP] (Biotin-RRRRRRRRRKEESLADDL-OH)
[1]
  SER: 1.46
NBS1 binding to MRE11
  NBS1 binding to MRE11: did not interfere with NBS1 binding to MRE11
[2]
  IR-induced γ-H2AX focus formation: significantly reduced H2AX foci/nucleus
HeLa cells
  presence of peptides in cells: strong distribution
[3]
  IR-induced NBS1 phosphorylation: abrogates IR-induced NBS1 phosphorylation
[4]; HeLa cells after treatment with 6-Gy IR
  NBS1 pSer343 foci per nucleus: 6 foci per nucleus
[4]; compared with R9 or scNIP treated cells
  NBS1 phosphorylation (anti-phospho-Ser343 NBS1 antibody): significantly inhibited
[4]; mock-irradiated HeLa cells
  average number of NBS1 pSer343 foci: 8
NBS1-ATM interaction; HeLa cells treated with IR
  ATM-NBS1 association (anti-NBS1 immunoprecipitation, anti-ATM blot): effect similar to that in unirradiated cells
NBS1-ATM interaction; HeLa cells, four hours after peptide treatment, unirradiated
  ATM-NBS1 association (anti-NBS1 immunoprecipitation, anti-ATM blot): NBS1 was no longer able to bring down ATM
